Target: KHK-A (Homo sapiens (Human), UniProt P50053)
Test: Assay D: KHK assay with 1 nM human KHK-A
Details: read-out: IC50 (nM) Assay D 1 nM KHK-A, 8 mM fructose, 0.2 mM ATP, avg of (#) runs
From the text: (§1) A screening assay was developed for KHK involving a coupled enzyme system which used the product of the KHK reaction to drive an absorbance signal in kinetic mode. KHK takes fructose and ATP and converts it to F1P and ADP. ADP then serves as substrate to pyruvate kinase which converts PEP to pyruvate which is then reduced to lactate by lactate dehydrogenase with the concomitant oxidation of NADH to NAD+. The resulting depletion of NADH was monitored by measuring absorbance at 340 nm.
A fourth assay, referred to as Assay D, was performed using human KHK-A to assess the potency of compounds in inhibiting activity of this enzyme. […] Reaction rates and IC50 values were calculated as described above.

Chain of KHK-A (P50053 other isoform, or with tags, fused parts or gaps): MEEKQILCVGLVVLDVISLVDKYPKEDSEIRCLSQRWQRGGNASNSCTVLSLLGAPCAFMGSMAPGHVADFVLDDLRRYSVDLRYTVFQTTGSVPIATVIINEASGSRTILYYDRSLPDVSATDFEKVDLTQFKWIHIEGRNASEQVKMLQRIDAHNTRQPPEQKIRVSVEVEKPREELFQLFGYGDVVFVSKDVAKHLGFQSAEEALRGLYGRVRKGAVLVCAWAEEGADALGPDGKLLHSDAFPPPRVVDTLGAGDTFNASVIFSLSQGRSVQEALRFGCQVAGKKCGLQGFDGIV

Row | SMILES | IC50 [nM]
1 | C[C@H]1CCN1c1nc(C(F)F)c(Cl)c(N2C[C@@H]3[C@@H](CC(=O)O)[C@@H]3C2)n1 [Example 40, [(1R,5S,6R)-3-{5-chloro-6-(difluoromethyl)-2-[(2S)-2-methylazetidin-1-yl]pyrimidin-4-yl}-3-azabicyclo[3.1.0]hex-6-yl]acetic acid] | 37.9

Target: T1, KHK-C (Homo sapiens (Human), UniProt P50053)
Test: Assay A: coupled-enzyme KHK absorbance assay, 10 nM KHK-C
Details: read-out: IC50 (nM) Assay A 10 nM KHK-C; 10 nM KHK-C, 0.8 mM fructose, 0.2 mM ATP; avg of (#) runs
From the text: as §1
Recombinant human KHK-C and KHK-A were expressed in E. coli as a His-tagged fusion protein and purified using Ni-NTA chromatography.
Compounds were prepared in DMSO as 4 mM stocks, diluted using an 11-point half-log scheme on a Biomek FX (Beckman Coulter), and incubated at rt for 30 minutes with the reaction mixture containing 50 mM HEPES, pH 7.4, 140 mM KCl, 3.5 mM MgCl2, 0.8 mM fructose, 2 mM TCEP, 0.8 mM PEP, 0.7 mM NADH, 0.01% Triton X-100, 30 U/mL pyruvate kinase-lactate dehydrogenase, and 10 nM purified KHK-C. The compound concentration in each well ranged from 1 nM to 100 μM. The reaction was initiated with the addition of 0.2 mM ATP. The absorbance was measured for 30 minutes on a SpectraMax reader (Molecular Devices) after ATP was added. The concentrations provided are based on the final mixture volume of 40 μL (referred to as the final concentration).
Controls: N8-(cyclopropylmethyl)-N4-(2-(methylthio)phenyl)-2-(piperazin-1-yl)pyrimido[5,4-d]pyrimidine-4,8-diamine at 2 μM final concentration was used as high percent effect (HPE) control, and 2.5% DMSO which was present in all reaction wells was used as zero percent effect (ZPE) control. Reaction rates were obtained for 300-1800 seconds time window in units of 1000*AU/min (absorbance unit per minute), and average values for ZPE and HPE controls from 16 wells each were calculated, AveZPE and AveHPE, respectively.
Percent inhibition (% inhibition) was calculated for each well using this equation:
For each compound tested, the IC50 provided is the average based on at least two separate assays conducted on separate days.

T1 sequence (P50053 whole entry): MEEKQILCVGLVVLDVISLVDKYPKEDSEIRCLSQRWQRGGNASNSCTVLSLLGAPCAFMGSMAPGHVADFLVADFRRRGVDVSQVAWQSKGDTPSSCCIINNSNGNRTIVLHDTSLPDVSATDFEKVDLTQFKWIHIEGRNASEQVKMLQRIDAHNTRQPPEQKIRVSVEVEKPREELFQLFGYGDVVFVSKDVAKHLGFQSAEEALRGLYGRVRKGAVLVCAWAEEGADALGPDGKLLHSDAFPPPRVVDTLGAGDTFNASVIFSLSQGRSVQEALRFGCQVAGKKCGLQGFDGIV

Row | SMILES | IC50 [nM]
2 | C[C@H]1CCN1c1nc(C(F)F)c(Cl)c(N2C[C@@H]3[C@@H](CC(=O)O)[C@@H]3C2)n1 [Example 40, [(1R,5S,6R)-3-{5-chloro-6-(difluoromethyl)-2-[(2S)-2-methylazetidin-1-yl]pyrimidin-4-yl}-3-azabicyclo[3.1.0]hex-6-yl]acetic acid] | 11.1

Same assay, conditions: read-out: IC50 (nM) Assay A (Table 4); 10 nM KHK-C, 0.8 mM fructose, 0.2 mM ATP; avg of (#) runs

Row | SMILES | IC50 [nM]
3 | Cc1c(N2C[C@@H]3[C@@H](CC(=O)O)[C@@H]3C2)nc(N2C[C@@](C)(O)[C@@H]2C)nc1C(F)(F)F [Example 26, [(1R,5S,6R)-3-{2-[(2S,3R)-3-hydroxy-2,3-dimethylazetidin-1-yl]-5-methyl-6-(trifluoromethyl)pyrimidin-4-yl}-3-azabicyclo[3.1.0]hex-6-yl]acetic acid] | 63.6
4 | C[C@H]1[C@H](O)CN1c1cc(N2C[C@@H]3[C@@H](CC(=O)O)[C@@H]3C2)cc(C(F)(F)F)n1 [Example 27, [(1R,5S,6R)-3-{2-[(2S,3R)-3-hydroxy-2-methylazetidin-1-yl]-6-(trifluoromethyl)pyridin-4-yl}-3-azabicyclo[3.1.0]hex-6-yl]acetic acid] | 109
5 | C[C@H]1CCCN1c1nc(N2C[C@@H]3[C@@H](CC(=O)O)[C@@H]3C2)cc(C(F)(F)F)n1 [Example 28, [(1R,5S,6R)-3-{2-[(2S)-2-methylpyrrolidin-1-yl]-6-(trifluoromethyl)pyrimidin-4-yl}-3-azabicyclo[3.1.0]hex-6-yl]acetic acid] | 120
6 | COc1c(C(F)F)nc(N2C[C@@H](O)[C@@H]2C)nc1N1C[C@@H]2[C@@H](CC(=O)O)[C@@H]2C1 [Example 29, [(1R,5S,6R)-3-{6-(difluoromethyl)-2-[(2S,3R)-3-hydroxy-2-methylazetidin-1-yl]-5-methoxypyrimidin-4-yl}-3-azabicyclo[3.1.0]hex-6-yl]acetic acid] | 265
7 | C[C@H]1[C@H](O)CN1c1nc(N2C[C@@H]3[C@@H](CC(=O)O)[C@@H]3C2)nc(C(F)(F)F)n1 [Example 30, [(1R,5S,6R)-3-{4-[(2S,3R)-3-hydroxy-2-methylazetidin-1-yl]-6-(trifluoromethyl)-1,3,5-triazin-2-yl}-3-azabicyclo[3.1.0]hex-6-yl]acetic acid] | 509
8 | N#Cc1c(C(F)(F)F)cc(N2C[C@@H]3[C@@H](CC(=O)O)[C@@H]3C2)nc1C1CCC1 [Example 31, {(1R,5S,6s)-3-[5-cyano-6-cyclobutyl-4-(trifluoromethyl)pyridin-2-yl]-3-azabicyclo[3.1.0]hex-6-yl}acetic acid] | 30
9 | C[C@H]1[C@H](O)CN1c1cc(N2C[C@@H]3[C@@H](CC(=O)O)[C@@H]3C2)nc(C(F)(F)F)n1 [Example 32, [(1R,5S,6R)-3-{6-[(2S,3R)-3-hydroxy-2-methylazetidin-1-yl]-2-(trifluoromethyl)pyrimidin-4-yl}-3-azabicyclo[3.1.0]hex-6-yl]acetic acid] | 1760
10 | Cc1c(N2C[C@@H]3[C@@H](CC(=O)O)[C@@H]3C2)nc(N2C[C@@H](O)[C@@H]2C)nc1C(C)(F)F [Example 33, [(1R,5S,6R)-3-{6-(1,1-difluoroethyl)-2-[(2S,3R)-3-hydroxy-2-methylazetidin-1-yl]-5-methylpyrimidin-4-yl}-3-azabicyclo[3.1.0]hex-6-yl]acetic acid] | 114
11 | C[C@H]1[C@H](O)CN1c1cc(N2C[C@@H]3[C@@H](CC(=O)O)[C@@H]3C2)cc(C(C)(F)F)n1 [Example 34, [(1R,5S,6R)-3-{2-(1,1-difluoroethyl)-6-[(2S,3R)-3-hydroxy-2-methylazetidin-1-yl]pyridin-4-yl}-3-azabicyclo[3.1.0]hex-6-yl]acetic acid] | 331
12 | C[C@H]1C[C@H](O)CN1c1nc(N2C[C@@H]3[C@@H](CC(=O)O)[C@@H]3C2)c(Cl)c(C(F)(F)F)n1 [Example 35, [(1R,5S,6R)-3-{5-chloro-2-[(2S,4S)-4-hydroxy-2-methylpyrrolidin-1-yl]-6-(trifluoromethyl)pyrimidin-4-yl}-3-azabicyclo[3.1.0]hex-6-yl]acetic acid] | 188
13 | C[C@@H]1N(c2nc(C(F)F)c(Cl)c(N3C[C@@H]4[C@@H](CC(=O)O)[C@@H]4C3)n2)C[C@@]1(C)O [Example 36, [(1R,5S,6R)-3-{5-chloro-6-(difluoromethyl)-2-[(2S,3R)-3-hydroxy-2,3-dimethylazetidin-1-yl]pyrimidin-4-yl}-3-azabicyclo[3.1.0]hex-6-yl]acetic acid] | 103
14 | N#Cc1c(C(F)F)cc(N2C[C@@H]3[C@@H](CC(=O)O)[C@@H]3C2)nc1N1CCCC1 [Example 37, {(1R,5S,6s)-3-[5-cyano-4-(difluoromethyl)-6-(pyrrolidin-1-yl)pyridin-2-yl]-3-azabicyclo[3.1.0]hex-6-yl}acetic acid] | 58.3
15 | CC1CCCN1c1nc(N2C[C@@H]3[C@@H](CC(=O)O)[C@@H]3C2)cc(C(F)F)c1C#N (stereo partly drawn) [Example 38, {(1R,5S,6s)-3-[5-cyano-4-(difluoromethyl)-6-(2-methylpyrrolidin-1-yl)pyridin-2-yl]-3-azabicyclo[3.1.0]hex-6-yl}acetic acid] | 25.3
16 | CC1CCCCN1c1nc(N2C[C@@H]3[C@@H](CC(=O)O)[C@@H]3C2)cc(C(F)(F)F)n1 (stereo partly drawn) [Example 39, {(1R,5S,6s)-3-[2-(2-methylpiperidin-1-yl)-6-(trifluoromethyl)pyrimidin-4-yl]-3-azabicyclo[3.1.0]hex-6-yl}acetic acid] | 24.8
17 | C[C@H]1CCN1c1nc(C(F)F)c(Cl)c(N2C[C@@H]3[C@@H](CC(=O)O)[C@@H]3C2)n1 [Example 40, [(1R,5S,6R)-3-{5-chloro-6-(difluoromethyl)-2-[(2S)-2-methylazetidin-1-yl]pyrimidin-4-yl}-3-azabicyclo[3.1.0]hex-6-yl]acetic acid] | 11.1
18 | CCc1c(C(F)F)nc(N2C[C@@H](O)[C@@H]2C)nc1N1C[C@@H]2[C@@H](CC(=O)O)[C@@H]2C1 [Example 41, [(1R,5S,6R)-3-{6-(difluoromethyl)-5-ethyl-2-[(2S,3R)-3-hydroxy-2-methylazetidin-1-yl]pyrimidin-4-yl}-3-azabicyclo[3.1.0]hex-6-yl]acetic acid] | 111
19 | Cc1c(N2C[C@@H]3[C@@H](CC(=O)O)[C@@H]3C2)nc(N2CC[C@@H]2C)nc1C(C)(F)F [Example 44, [(1R,5S,6R)-3-{6-(1,1-difluoroethyl)-5-methyl-2-[(2S)-2-methylazetidin-1-yl]pyrimidin-4-yl}-3-azabicyclo[3.1.0]hex-6-yl]acetic acid] | 51.4
20 | C[C@H]1[C@H](O)CN1c1nc(C(F)F)c(C2CC2)c(N2C[C@@H]3[C@@H](CC(=O)O)[C@@H]3C2)n1 [Example 45, [(1R,5S,6R)-3-{5-cyclopropyl-6-(difluoromethyl)-2-[(2S,3R)-3-hydroxy-2-methylazetidin-1-yl]pyrimidin-4-yl}-3-azabicyclo[3.1.0]hex-6-yl]acetic acid] | 238
21 | N#Cc1c(C(F)(F)F)cc(N2C[C@@H]3[C@@H](CC(=O)O)[C@@H]3C2)nc1N1CCC1 [Example 46, {(1R,5S,6s)-3-[6-(azetidin-1-yl)-5-cyano-4-(trifluoromethyl)pyridin-2-yl]-3-azabicyclo[3.1.0]hex-6-yl}acetic acid] | 21.5
22 | O=C(O)C[C@@H]1[C@H]2CN(c3cc(C(F)(F)F)nc(N4CCC4)n3)C[C@@H]12 [Example 47, {(1R,5S,6s)-3-[2-(azetidin-1-yl)-6-(trifluoromethyl)pyrimidin-4-yl]-3-azabicyclo[3.1.0]hex-6-yl}acetic acid] | 619
23 | C[C@@H]1N(c2nc(N3C[C@@H]4[C@H](C3)[C@H]4CS(C)(=O)=O)c(Cl)c(C(F)(F)F)n2)C[C@@]1(C)O [Example 48, (2S,3R)-1-[5-chloro-4-{(1R,5S,6S)-6-[(methylsulfonyl)methyl]-3-azabicyclo[3.1.0]hex-3-yl}-6-(trifluoromethyl)pyrimidin-2-yl]-2,3-dimethylazetidin-3-ol] | 1360
24 | N#Cc1c(C(F)F)cc(N2C[C@@H]3[C@@H](CC(=O)O)[C@@H]3C2)nc1NC1CCC1 [Example 51, {(1R,5S,6s)-3-[5-cyano-6-(cyclobutylamino)-4-(difluoromethyl)pyridin-2-yl]-3-azabicyclo[3.1.0]hex-6-yl}acetic acid] | 150
25 | C[C@H]1[C@H](O)CN1c1nc(N2C[C@@H]3[C@@H](CCC(=O)O)[C@@H]3C2)cc(C(F)(F)F)c1C#N [Example 52, 3-[(1R,5S,6R)-3-{5-cyano-6-[(2S,3R)-3-hydroxy-2-methylazetidin-1-yl]-4-(trifluoromethyl)pyridin-2-yl}-3-azabicyclo[3.1.0]hex-6-yl]propanoic acid] | 82.5
26 | C[C@H]1[C@H](O)CN1c1nc(N2C[C@@H]3[C@@H](CC(=O)O)[C@@H]3C2)c(C#N)c(C(F)(F)F)n1 [Example 53, [(1R,5S,6R)-3-{5-cyano-2-[(2S,3R)-3-hydroxy-2-methylazetidin-1-yl]-6-(trifluoromethyl)pyrimidin-4-yl}-3-azabicyclo[3.1.0]hex-6-yl]acetic acid] | 21
27 | C[C@H]1[C@H](O)CN1c1nc(N2C[C@@H]3[C@@H](CC(=O)O)[C@@H]3C2)nc(C(F)(F)F)c1C#N [Example 54, [(1R,5S,6R)-3-{5-cyano-4-[(2S,3R)-3-hydroxy-2-methylazetidin-1-yl]-6-(trifluoromethyl)pyrimidin-2-yl}-3-azabicyclo[3.1.0]hex-6-yl]acetic acid] | 19
28 | C[C@@H]1N(c2nc(N3C[C@@H]4[C@@H](CC(=O)O)[C@@H]4C3)cc(C(F)F)c2C#N)C[C@@]1(C)O [Example 55, [(1R,5S,6R)-3-{5-cyano-4-(difluoromethyl)-6-[(2S,3R)-3-hydroxy-2,3-dimethylazetidin-1-yl]pyridin-2-yl}-3-azabicyclo[3.1.0]hex-6-yl]acetic acid] | 13.7

Target: T1, KHK-C
Test: Assay B: KHK assay with 1 nM KHK-C, absorbance for 3 hours
Details: read-out: IC50 (nM) Assay B 1 nM KHK-C; 1 nM KHK-C, 0.2 mM ATP, 3 hours; avg of (#) runs
From the text: as §1
The reaction was initiated with addition of 0.2 mM ATP, and the absorbance was monitored for 3 hours at 340 nm. Reaction rates and IC50 values were calculated as described above.

Row | SMILES | IC50 [nM]
29 | C[C@H]1CCN1c1nc(C(F)F)c(Cl)c(N2C[C@@H]3[C@@H](CC(=O)O)[C@@H]3C2)n1 [Example 40, [(1R,5S,6R)-3-{5-chloro-6-(difluoromethyl)-2-[(2S)-2-methylazetidin-1-yl]pyrimidin-4-yl}-3-azabicyclo[3.1.0]hex-6-yl]acetic acid] | 3.7
